From patent US8247351B2, “Insecticidal compositions having improved effect” (Bayer Cropscience AG, priority 2005, dated 2012)

Legend:
Type in all cases: in vivo
[1] = tested on: Myzus persicae; assay: Myzus persicae test, Example F (sprayed to runoff, ammonium salt plus penetrant)
Procedure: (§1) Solvent: 7 parts by weight dimethylformamide
(§2) Emulsifier: 2 parts by weight alkylaryl polyglycol ether
An appropriate preparation of active ingredient is prepared by mixing 1 part by weight of active ingredient with the stated amounts of solvent and emulsifier and diluting the concentrate with water to the desired concentration. For the application with ammonium salts or phosphonium salts and penetrant (rapeseed oil methyl ester 500 EW), they are each added in a concentration of 1000 ppm to the spray liquor.
After the desired time the destruction in % is ascertained. 100% means that all of the animals have been killed; 0% means that no animals have been killed.

[2] = tested on: Aphis gossypii; assay: Aphis gossypii test, Example G (sprayed to runoff, ammonium salt plus penetrant)
Procedure: as §1, §2
(§3) An appropriate preparation of active ingredient is prepared by mixing 1 part by weight of active ingredient with the stated amounts of solvent and emulsifier and diluting the concentrate with emulsifier-containing water to the desired concentration. For the application with ammonium salts or phosphonium salts and penetrants (rapeseed oil methyl esters 500 EW), they are each added in a concentration of 1000 ppm a.i. to the spray liquor.
(§4) Cotton plants (Gossypium hirsutum) heavily infested by the cotton aphid (Aphis gossypii) are sprayed to runoff with the preparation of active ingredient at the desired concentration.
(§5) After the desired time the destruction in % is ascertained. 100% means that all of the aphids have been killed; 0% means than no aphids were killed.

[3] = tested on: Aphis gossypii; assay: Aphis gossypii test, Example E (sprayed to runoff, ammonium salt boosting)
Procedure: as §1, §2
as §3, with “phosphonium salts, these” for “phosphonium”, “salts” for “salts and penetrants (rapeseed oil methyl esters 500 EW), they”, “are” for “are each”, “ppm” for “ppm a.i.”
as §4, §5

[4] = 100 ppm active ingredient, +AS (1000 ppm)
[5] = 100 ppm active ingredient, +RME (1000 ppm)
[6] = 100 ppm active ingredient, +RME +AS (each 1000 ppm)
[7] = 100 ppm active ingredient, no additive
[8] = 0.8 ppm active ingredient, +AS (1000 ppm)
[9] = 0.8 ppm active ingredient, no additive
[10] = 4 ppm active ingredient, +AS (1000 ppm)
[11] = 4 ppm active ingredient, no additive
[12] = 0.8 ppm active ingredient, +RME (1000 ppm)
[13] = 0.8 ppm active ingredient, +RME +AS (each 1000 ppm)
[14] = 4 ppm active ingredient, +RME (1000 ppm)
[15] = 4 ppm active ingredient, +RME +AS (each 1000 ppm)
[16] = 20 ppm active ingredient, +AS (1000 ppm)
[17] = 20 ppm active ingredient, no additive
[18] = 20 ppm active ingredient, +RME (1000 ppm)
[19] = 20 ppm active ingredient, +RME +AS (each 1000 ppm)

O=C1C(c2cc(-c3ccc(Cl)cc3)ccc2Cl)C(=O)N2CCOCCN12 [Example I-8-a-2]
Degree of destruction/% after 6 days [1, 4]: 15% | Degree of destruction/% after 6 days [1, 5]: 15% | Degree of destruction/% after 6 days [1, 6]: 55% | Degree of destruction/% after 6 days [1, 7]: 0%

COC1CCCC2(CC(O)=C(c3c(C)cc(C)cc3C)C2=O)C1 (centres unmarked) [Example I-6-a-2]
Degree of destruction/% after 6 days [2, 4]: 30% | Degree of destruction/% after 6 days [2, 5]: 15% | Degree of destruction/% after 6 days [2, 6]: 40% | Degree of destruction/% after 6 days [2, 7]: 0%

Cc1cc(C)c(C2=C(O)C3(CCCCC3)CC2=O)c(C)c1 [Example I-6-a-1]
Degree of destruction/% after 6 days [2, 4]: 40% | Degree of destruction/% after 6 days [2, 5]: 60% | Degree of destruction/% after 6 days [2, 6]: 80% | Degree of destruction/% after 6 days [2, 7]: 40%

COCC1CCC2(CC1)NC(=O)C(c1c(C)cc(C)cc1C)=C2O (centres unmarked) [Example I-1-a-14]
Degree of destruction/% after 6 days [3, 8]: 40% | Degree of destruction/% after 6 days [3, 9]: 25% | Degree of destruction/% after 6 days [3, 10]: 90% | Degree of destruction/% after 6 days [3, 11]: 55%

CO[C@H]1CC[C@]2(CC1)NC(=O)C(c1cc(C)ccc1C)=C2O [Example I-1-a-13]
Degree of destruction/% after 6 days [1, 8]: 0% | Degree of destruction/% after 6 days [1, 12]: 0% | Degree of destruction/% after 6 days [1, 13]: 30% | Degree of destruction/% after 6 days [1, 9]: 0% | Degree of destruction/% after 6 days [1, 10]: 0% | Degree of destruction/% after 6 days [1, 14]: 65% | Degree of destruction/% after 6 days [1, 15]: 75% | Degree of destruction/% after 6 days [1, 11]: 0%

COCCC1CCC2(CC1)NC(=O)C(c1c(C)cc(C)cc1C)=C2O (centres unmarked) [Example I-1-a-17]
Degree of destruction/% after 6 days [3, 10]: 80% | Degree of destruction/% after 6 days [3, 11]: 50% | Degree of destruction/% after 6 days [3, 16]: 85% | Degree of destruction/% after 6 days [3, 17]: 70%

O=C1C(c2cc(-c3ccc(Cl)cc3)ccc2Cl)C(=O)N2CCCCN12 [Example I-8-a-1]
Degree of destruction/% after 6 days [1, 4]: 30% | Degree of destruction/% after 6 days [1, 5]: 30% | Degree of destruction/% after 6 days [1, 6]: 45% | Degree of destruction/% after 6 days [1, 7]: 15% | Degree of destruction/% after 6 days [2, 4]: 15% | Degree of destruction/% after 6 days [2, 5]: 15% | Degree of destruction/% after 6 days [2, 6]: 40% | Degree of destruction/% after 6 days [2, 7]: 0%

Cc1cc(C)c(C2C(=O)N3CCOCCN3C2=O)c(C)c1-c1ccc(Cl)cc1 [Example I-8-a-4]
Degree of destruction/% after 6 days ([2]; 90 ppm active ingredient, +AS (1000 ppm)): 35% | Degree of destruction/% after 6 days ([2]; 90 ppm active ingredient, +RME (1000 ppm)): 30% | Degree of destruction/% after 6 days ([2]; 90 ppm active ingredient, +RME +AS (each 1000 ppm)): 75% | Degree of destruction/% after 6 days ([2]; 90 ppm active ingredient, no additive): 30%

COC1CCC2(CC1)NC(=O)C(c1c(C)cc(C)c(C)c1C)=C2O (centres unmarked) [Example I-1-a-9]
Degree of destruction/% after 6 days [1, 8]: 5% | Degree of destruction/% after 6 days [1, 12]: 35% | Degree of destruction/% after 6 days [1, 13]: 75% | Degree of destruction/% after 6 days [1, 9]: 0%

COCC1CCC2(CC1)NC(=O)C(c1c(C)cc(Cl)cc1C)=C2O (centres unmarked) [Example I-1-a-15]
Degree of destruction/% after 6 days [1, 8]: 0% | Degree of destruction/% after 6 days [1, 12]: 50% | Degree of destruction/% after 6 days [1, 13]: 80% | Degree of destruction/% after 6 days [1, 9]: 15% | Degree of destruction/% after 6 days [3, 10]: 75% | Degree of destruction/% after 6 days [3, 11]: 40% | Degree of destruction/% after 6 days [3, 16]: 95% | Degree of destruction/% after 6 days [3, 17]: 80%

Cc1ccc(-c2ccc(Cl)cc2)c(C)c1C1C(=O)N2CCOCCN2C1=O [Example I-8-a-3]
Degree of destruction/% after 6 days [2, 16]: 50% | Degree of destruction/% after 6 days [2, 18]: 50% | Degree of destruction/% after 6 days [2, 19]: 90% | Degree of destruction/% after 6 days [2, 17]: 15%

Cc1ccc(-c2ccc(Cl)cc2)cc1C1=C(O)C(C)(C)C(C)(C)NC1=O [Example I-9-a-1]
Degree of destruction/% after 6 days [1, 4]: 0% | Degree of destruction/% after 6 days [1, 5]: 5% | Degree of destruction/% after 6 days [1, 6]: 50% | Degree of destruction/% after 6 days [1, 7]: 15%

CCOC(=O)OC1=C(c2c(C)cc(C)cc2C)C(=O)NC12CCC(COC)CC2 (centres unmarked) [Example I-1-c-2]
Degree of destruction/% after 6 days [2, 16]: 85% | Degree of destruction/% after 6 days [2, 18]: 90% | Degree of destruction/% after 6 days [2, 19]: 99% | Degree of destruction/% after 6 days [2, 17]: 85%

COCC1CCC2(CC1)NC(=O)C(c1cc(C)c(Cl)cc1C)=C2O (centres unmarked) [Example I-1-a-18]
Degree of destruction/% after 6 days [1, 10]: 0% | Degree of destruction/% after 6 days [1, 14]: 35% | Degree of destruction/% after 6 days [1, 15]: 55% | Degree of destruction/% after 6 days [1, 11]: 0%
